According to publication PMC12370193, “An L-fucose-responsive transcription factor cross-regulates the expression of a diverse array of carbohydrate-active enzymes in Trichoderma reesei” (PLOS Genetics, 2025):

Molecular target: T1, FDH1 (Trichoderma reesei, UniProt G0RGU7)
T1 construct: gene TRIREDRAFT_60517; full-length re-annotated 302-aa protein (database gene model may differ; S1 Data); codon-optimized; pET-32a(+), E. coli BL21(DE3); N-terminal His6 tag
Experiment: NADH formation at […] nm, initial rates, Hill equation fit
Assay type: biochemical
Details: NAD+ co-substrate (0.5 mM in standard assay), 50 mM Tris-HCl pH 9.0, 30 °C

T1 sequence (G0RGU7 entry or part of it): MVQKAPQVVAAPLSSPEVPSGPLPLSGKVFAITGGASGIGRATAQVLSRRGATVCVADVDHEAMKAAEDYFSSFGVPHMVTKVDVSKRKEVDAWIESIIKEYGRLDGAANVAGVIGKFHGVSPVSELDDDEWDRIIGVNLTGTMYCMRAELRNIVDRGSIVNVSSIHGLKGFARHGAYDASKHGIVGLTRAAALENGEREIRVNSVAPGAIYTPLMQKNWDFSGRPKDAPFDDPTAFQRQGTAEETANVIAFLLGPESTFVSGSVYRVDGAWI

Km: 546 µM
Structure (SMILES): C[C@@H]1OC(O)[C@@H](O)[C@H](O)[C@@H]1O (stereo partly drawn) [L-fucose, 6-deoxy-L-galactose]
